Measurements taken from patent US10045983B2, “Heteroaryl pyridone and aza-pyrodine compounds” (Genentech, Inc., priority 2011, dated 2018).
Where two headings read alike, the source gives them in different places.

Test: CD69 Whole Blood Assay (CD69 Hu Blood FACS)
Type: cell-based, human
Conditions: Lymphocyte, human whole blood, anti-IgM activated B lymphocytes, FACS, IC70
Description: A CD69 Whole Blood Assay can be conducted on Formula I compounds to determine the ability of compounds to inhibit the production of CD69 by B lymphocytes in human whole blood activated by crosslinking surface IgM with goat F(ab′)2 anti-human IgM (Example 907). CD69 is a type II C-type lectin involved in lymphocyte migration and cytokine secretion. CD69 expression represents one of the earliest available indicators of leukocyte activation and its rapid induction occurs through transcriptional activation (Vazquez et al (2009) Jour. of Immunology Published Oct. 19, 2009, doi:10.4049/jimmunol.0900839). Concentration-dependent inhibition of antigen receptor stimulation by selective Btk inhibitors induces cell surface expression of the lymphocyte activation marker CD69 (Honigberg et al (2010) Proc. Natl. Acad. Sci. 107(29):13075-13080). Thus, CD69 inhibition by selective Btk inhibitors may be correlated with therapeutic efficacy of certain B-cell disorders.

[1] = Table 1, read-out: CD69 Hu Blood FACS IC70

SMILES | IC70 (Table 2 (unit inferred), read-out: CD69 Hu Blood FACS (IC70)) | IC70 [1]
COC[C@H](C)N1CCn2nc(Nc3cc(-c4ccnc(N5CCn6c(cc7c6CC(C)(C)C7)C5=O)c4CO)cn(C)c3=O)cc2C1 (single isomer, unassigned) [Example 303] | 17.9 nM | –
CN1CCn2nc(Nc3cc(-c4ccnc(N5CCn6c(cc7c6[C@H]6CC[C@@H]7C6)C5=O)c4CO)cn(C)c3=O)cc2C1 (stereo in doubt) [Example 167, 2-(3-(hydroxymethyl)-4-(1-methyl-5-(5-methyl-4,5,6,7-tetrahydropyrazolo[1,5-a]pyrazin-2-ylamino)-6-oxo-1,6-dihydropyridin-3-yl)pyridin-2-yl)-3,4,6,7,8,9-hexahydro-6,9-methanopyrazino[1,2-a]indol-1(2H)-one] | – | 119 nM
CN1CCn2nc(Nc3cc(-c4ccnc(N5CCn6c(cc7c6[C@@H]6CC[C@H]7C6)C5=O)c4CO)cn(C)c3=O)cc2C1 (stereo in doubt) [Example 170, 2-(3-(hydroxymethyl)-4-(1-methyl-5-(5-methyl-4,5,6,7-tetrahydropyrazolo[1,5-a]pyrazin-2-ylamino)-6-oxo-1,6-dihydropyridin-3-yl)pyridin-2-yl)-3,4,6,7,8,9-hexahydro-6,9-methanopyrazino[1,2-a]indol-1(2H)-one] | – | 335 nM
Cn1cc(-c2cncc(N3CCn4c(cc5c4CCCC5)C3=O)c2CO)cc(Nc2ccc(N3CCN(C4COC4)CC3)cn2)c1=O [Example 101, 2-(4-(hydroxymethyl)-5-(1-methyl-5-(5-(4-(oxetan-3-yl)piperazin-1-yl)pyridin-2-ylamino)-6-oxo-1,6-dihydropyridin-3-yl)pyridin-3-yl)-3,4,6,7,8,9-hexahydropyrazino[1,2-a]indol-1(2H)-one] | – | 132 nM
CN1CCN(c2ccc(Nc3cc(-c4cncc(N5CCn6c(cc7c6CCCC7)C5=O)c4CO)cn(C)c3=O)nc2)CC1 [Example 102, 2-(4-(Hydroxymethyl)-5-(1-methyl-5-(5-(4-methylpiperazin-1-yl)pyridin-2-ylamino)-6-oxo-1,6-dihydropyridin-3-yl)pyridin-3-yl)-3,4,6,7,8,9-hexahydropyrazino[1,2-a]indol-1(2H)-one] | – | 132 nM
Cn1cc(-c2ccnc(N3CCn4c(cc5c4CCCC5)C3=O)c2CO)cc(Nc2ccc(N3CCN(C4COC4)CC3)cn2)c1=O [Example 103, 2-(3-(Hydroxymethyl)-4-(1-methyl-5-(5-(4-(oxetan-3-yl)piperazin-1-yl)pyridin-2-ylamino)-6-oxo-1,6-dihydropyridin-3-yl)pyridin-2-yl)-3,4,6,7,8,9-hexahydropyrazino[1,2-a]indol-1(2H)-one] | – | 77.6 nM
Cn1cc(-c2nccc(N3CCn4c(cc5c4CCCC5)C3=O)c2CO)cc(Nc2ccc(N3CCN(C4COC4)CC3)cn2)c1=O [Example 104, 2-(3-(Hydroxymethyl)-2-(1-methyl-5-(5-(4-(oxetan-3-yl)piperazin-1-yl)pyridin-2-ylamino)-6-oxo-1,6-dihydropyridin-3-yl)pyridin-4-yl)-3,4,6,7,8,9-hexahydropyrazino[1,2-a]indol-1(2H)-one] | – | 793 nM
Cn1cc(-c2cncc(N3CCc4c(sc5c4CCCC5)C3=O)c2CO)cc(Nc2ccc(N3CCN(C4COC4)CC3)cn2)c1=O [Example 105, 4-Hydroxymethyl-3-[1-methyl-5-({5-[4-(oxetan-3-yl)piperazin-1-yl]pyridine-2-yl}amino)-6-oxo-1,6-dihydropyridin-3-yl]-5-{6-oxo-8-thia-5-azatricyclo-[7.4.0.0^2,7]trideca-1(9),2(7)-dien-5-yl}pyridine] | – | 65.4 nM
Cn1cc(-c2cncc(N3CCc4c(sc5c4CC(C)(C)C5)C3=O)c2CO)cc(Nc2ccc(N3CCN(C4COC4)CC3)cn2)c1=O [Example 106] | – | 57.6 nM
Cn1cc(-c2cncc(N3CCn4c(cc5c4CC(C)(C)C5)C3=O)c2CO)cc(Nc2ccc(N3CCN(C4COC4)CC3)cn2)c1=O [Example 107, 10-[4-[1-Methyl-5-({5-[4-(oxetan-3-yl)piperazin-1-yl]pyridine-2-yl}amino)-6-oxo-1,6-dihydropyridin-3-yl]-4-(hydroxymethyl)pyridin-3-yl]-4,4-dimethyl-1,10-diazatricyclo[6.4.0.0^2,6]dodeca-2(6),7-dien-9-one] | – | 21.6 nM
Cn1cc(-c2ccnc(N3CCn4c(cc5c4CC(C)(C)C5)C3=O)c2CO)cc(Nc2ccc(N3CCN(C4COC4)CC3)cn2)c1=O [Example 108, 2-(3-(Hydroxymethyl)-4-(1-methyl-5-(5-(4-(oxetan-3-yl)piperazin-1-yl)pyridin-2-ylamino)-6-oxo-1,6-dihydropyridin-3-yl)pyridin-2-yl)-4,4-dimethyl-1,10-diazatricyclo[6.4.0.0^2,6]dodeca-2(6),7-dien-9-one] | – | 31.9 nM
Cn1cc(-c2ccnc(N3CCc4c(sc5c4CC(C)(C)C5)C3=O)c2CO)cc(Nc2ccc(N3CCN(C4COC4)CC3)cn2)c1=O [Example 109, 2-(3-(Hydroxymethyl)-4-(1-methyl-5-(5-(4-(oxetan-3-yl)piperazin-1-yl)pyridin-2-ylamino)-6-oxo-1,6-dihydropyridin-3-yl)pyridin-2-yl)-4,4-dimethyl-7-thia-10-azatricyclo[6.4.0.0^2,6]dodeca-1(8),2(6)-dien-9-one] | – | 50.1 nM
CN1CCN(c2cccc(Nc3cc(-c4ccnc(N5CCn6c(cc7c6CCCC7)C5=O)c4CO)cn(C)c3=O)n2)CC1 [Example 110, 2-(3-(Hydroxymethyl)-4-(1-methyl-5-(6-(4-methylpiperazin-1-yl)pyridine-2-ylamino)-6-oxo-1,6-dihydropyridin-3-yl)pyridin-2-yl)-3,4,6,7,8,9-hexahydropyrazino[1,2-a]indol-1(2H)-one] | – | 2700 nM
Cn1cc(-c2ccnc(N3CCn4c(cc5c4CCCC5)C3=O)c2CO)cc(Nc2ccc(C(=O)N3CCOCC3)cn2)c1=O [Example 111, 2-(3-(Hydroxymethyl)-4-(1-methyl-5-(5-(morpholine-4-carbonyl)pyridin-2-ylamino)-6-oxo-1,6-dihydropyridin-3-yl)pyridin-2-yl)-3,4,6,7,8,9-hexahydropyrazino[1,2-a]indol-1(2H)-one] | – | 131 nM
Cn1cc(-c2cncc(N3CCc4c(cc5n4CCCC5)C3=O)c2CO)cc(Nc2ccc(N3CCN(C4COC4)CC3)cn2)c1=O [Example 112, 2-(4-(Hydroxymethyl)-5-(1-methyl-5-(5-(4-(oxetan-3-yl)piperazin-1-yl)pyridin-2-ylamino)-6-oxo-1,6-dihydropyridin-3-yl)pyridin-3-yl)-3,4,6,7,8,9-hexahydropyrido[3,4-b]indolizin-1(2H)-one] | – | 492 nM
CN1CCn2nc(Nc3cc(-c4ccnc(N5CCn6c(cc7c6CCCC7)C5=O)c4CO)cn(C)c3=O)cc2C1 [Example 113, 2-(3-(Hydroxymethyl)-4-(1-methyl-5-(5-methyl-4,5,6,7-tetrahydropyrazolo[1,5-a]pyrazin-2-ylamino)-6-oxo-1,6-dihydropyridin-3-yl)pyridin-2-yl)-3,4,6,7,8,9-hexahydropyrazino[1,2-a]indol-1(2H)-one] | – | 62.5 nM
CN1CCN(C)[C@H](c2ccc(Nc3nc(-c4ccnc(N5CCn6c(cc7c6CCCC7)C5=O)c4CO)cn(C)c3=O)cc2)C1=O [Example 114, (R)-2-(4-(6-(4-(1,4-dimethyl-3-oxopiperazin-2-yl)phenylamino)-4-methyl-5-oxo-4,5-dihydropyrazin-2-yl)-3-(hydroxymethyl)pyridin-2-yl)-3,4,6,7,8,9-hexahydropyrazino[1,2-a]indol-1(2H)-one] | – | 80.2 nM
Cc1cc(Nc2cc(-c3ccnc(N4CCn5c(cc6c5CCCC6)C4=O)c3CO)cn(C)c2=O)n[nH]1 [Example 115, 2-(3-(Hydroxymethyl)-4-(1-methyl-5-(5-methyl-1H-pyrazol-3-ylamino)-6-oxo-1,6-dihydropyridin-3-yl)pyridin-2-yl)-3,4,6,7,8,9-hexahydropyrazino[1,2-a]indol-1(2H)-one] | – | 286 nM
Cn1cc(-c2cncc(-n3ncc4c5c(sc4c3=O)CCCC5)c2CO)cc(Nc2ccc(N3CCN(C4COC4)CC3)cn2)c1=O [Example 116, 4-Hydroxymethyl-3-[1-methyl-5-({5-[4-(oxetan-3-yl)piperazin-1-yl]pyridine-2-yl}amino)-6-oxo-1,6-dihydropyridin-3-yl]-5-{6-oxo-8-thia-4,5-diazatricyclo[7.4.0.0^2,7]trideca-1(9),2(7),3-trien-5-yl}pyridine] | – | 377 nM
Cn1cc(-c2ccnc(N3CCn4c(cc5c4CCCC5)C3=O)c2CO)cc(Nc2ccc(S(C)(=O)=O)cn2)c1=O [Example 117, 2-(3-(hydroxymethyl)-4-(1-methyl-5-(5-(methylsulfonyl)pyridin-2-ylamino)-6-oxo-1,6-dihydropyridin-3-yl)pyridin-2-yl)-3,4,6,7,8,9-hexahydro-pyrazino[1,2-a]indol-1(2H)-one] | – | 396 nM
Cn1cc(-c2ccnc(N3CCn4c(cc5c4CCCC5)C3=O)c2CO)cc(Nc2cc(C3CC3)[nH]n2)c1=O [Example 118, 2-(4-(5-(5-Cyclopropyl-1H-pyrazol-3-ylamino)-1-methyl-6-oxo-1,6-dihydropyridin-3-yl)-3-(hydroxymethyl)pyridin-2-yl)-3,4,6,7,8,9-hexahydropyrazino[1,2-a]indol-1(2H)-one] | – | 608 nM
C[C@H]1CN(C2COC2)CCN1c1ccc(Nc2cc(-c3ccnc(N4CCn5c(cc6c5CCCC6)C4=O)c3CO)cn(C)c2=O)nc1 [Example 119, (S)-2-(3-(Hydroxymethyl)-4-(1-methyl-5-(5-(2-methyl-4-(oxetan-3-yl)piperazin-1-yl)pyridin-2-ylamino)-6-oxo-1,6-dihydropyridin-3-yl)pyridin-2-yl)-3,4,6,7,8,9-hexahydropyrazino[1,2-a]indol-1(2H)-one] | – | 35.6 nM
